Measurements from paper PMC9636582 (The Journal of Biological Chemistry, 2022).

Tests used:
[1] = biological target: T1, GAL4-PPARα LBD (Homo sapiens, UniProt Q07869); test: GAL4-PPARα LBD luciferase reporter assay in HEK293 cells; type: cell-based; details: for ligand-induced activation of PPARα (in words): 100 μM fatty acids, Fig. 1B
T1 construct: chimeric receptors containing the LBD of various NRs; expressed in transfected cells; host or cells: HEK293
T1 sequence (Q07869 239-466 limits assumed): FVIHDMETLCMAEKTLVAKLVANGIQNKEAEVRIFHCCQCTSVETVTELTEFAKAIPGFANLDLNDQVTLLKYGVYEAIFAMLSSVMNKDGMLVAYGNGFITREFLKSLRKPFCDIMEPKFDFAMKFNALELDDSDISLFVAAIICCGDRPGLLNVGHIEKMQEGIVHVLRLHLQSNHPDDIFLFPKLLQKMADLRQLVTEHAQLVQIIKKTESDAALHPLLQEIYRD

[2] = biological target: T2, GAL4-PPARδ LBD (Homo sapiens, UniProt Q03181); test: GAL4-PPARδ LBD luciferase reporter assay in HEK293 cells; type: cell-based; details: for PPARδ activation (in words): 100 μM fatty acids, Fig. 1B
T2 construct: chimeric receptors containing the LBD of various NRs; expressed in transfected cells; host or cells: HEK293
T2 sequence (Q03181 211-439 limits assumed): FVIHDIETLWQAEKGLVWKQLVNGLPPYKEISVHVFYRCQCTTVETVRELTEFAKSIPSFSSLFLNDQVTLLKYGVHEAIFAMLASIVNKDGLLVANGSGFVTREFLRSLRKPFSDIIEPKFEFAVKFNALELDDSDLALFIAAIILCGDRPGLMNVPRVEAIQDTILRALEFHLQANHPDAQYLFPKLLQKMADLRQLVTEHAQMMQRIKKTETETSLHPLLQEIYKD

[3] = biological target: T3, VP16-PPARδ / GAL4-SRC-1 (Homo sapiens, UniProt Q03181); test: mammalian two-hybrid assay, VP16-PPARδ and coactivator GAL4-SRC-1; type: cell-based; details: 30 μM fatty acids, 100 nM GW1516, HEK293 cells, Fig. 3A
T3 construct: expressed in transfected cells; host or cells: HEK293
T3 sequence (Q03181 1-441): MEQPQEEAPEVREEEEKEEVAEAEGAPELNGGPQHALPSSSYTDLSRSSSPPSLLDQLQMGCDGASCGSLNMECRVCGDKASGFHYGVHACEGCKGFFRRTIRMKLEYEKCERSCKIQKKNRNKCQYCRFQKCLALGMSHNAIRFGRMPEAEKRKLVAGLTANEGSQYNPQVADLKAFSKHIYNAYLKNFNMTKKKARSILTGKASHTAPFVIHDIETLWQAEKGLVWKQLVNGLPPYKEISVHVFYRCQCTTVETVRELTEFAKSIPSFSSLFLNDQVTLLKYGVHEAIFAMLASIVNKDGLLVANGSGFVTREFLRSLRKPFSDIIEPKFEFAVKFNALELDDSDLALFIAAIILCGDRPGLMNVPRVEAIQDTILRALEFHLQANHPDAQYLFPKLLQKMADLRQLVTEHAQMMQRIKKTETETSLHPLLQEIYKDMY
T3 sequence (Q15788 595-771 partner limits assumed): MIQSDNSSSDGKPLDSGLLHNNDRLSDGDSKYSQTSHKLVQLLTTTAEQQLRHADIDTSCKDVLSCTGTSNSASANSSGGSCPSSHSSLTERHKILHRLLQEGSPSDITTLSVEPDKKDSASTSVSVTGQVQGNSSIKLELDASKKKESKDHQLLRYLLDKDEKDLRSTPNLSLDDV

[4] = biological target: T4, full-length PPARδ (Homo sapiens, UniProt Q03181); test: full-length PPARδ PPRE luciferase reporter assay in HEK293 cells; type: cell-based; details: Fig. 1C
T4 construct: expressed in transfected cells; host or cells: HEK293
T4 sequence (Q03181 1-441): T3 sequence (Q03181 1-441)
From the text: Luciferase activities were normalized to β-galactosidase activities.

[5] = biological target: T5, VP16-PPARδ / GAL4-NCoR (Homo sapiens, UniProt Q03181); test: mammalian two-hybrid assay, VP16-PPARδ and corepressor NCoR; type: cell-based; details: 30 μM fatty acids, HEK293 cells, Fig. 3C
T5 construct: expressed in transfected cells; host or cells: HEK293
T5 sequence (Q03181 1-441): T3 sequence (Q03181 1-441)

[6] = biological target: T6, VP16-PPARα / GAL4-NCoR (Homo sapiens, UniProt Q07869); test: mammalian two-hybrid assay, VP16-PPARα and corepressor NCoR; type: cell-based; details: 30 μM fatty acids, HEK293 cells, Fig. 3D
T6 construct: expressed in transfected cells; host or cells: HEK293
T6 sequence (Q07869 1-468): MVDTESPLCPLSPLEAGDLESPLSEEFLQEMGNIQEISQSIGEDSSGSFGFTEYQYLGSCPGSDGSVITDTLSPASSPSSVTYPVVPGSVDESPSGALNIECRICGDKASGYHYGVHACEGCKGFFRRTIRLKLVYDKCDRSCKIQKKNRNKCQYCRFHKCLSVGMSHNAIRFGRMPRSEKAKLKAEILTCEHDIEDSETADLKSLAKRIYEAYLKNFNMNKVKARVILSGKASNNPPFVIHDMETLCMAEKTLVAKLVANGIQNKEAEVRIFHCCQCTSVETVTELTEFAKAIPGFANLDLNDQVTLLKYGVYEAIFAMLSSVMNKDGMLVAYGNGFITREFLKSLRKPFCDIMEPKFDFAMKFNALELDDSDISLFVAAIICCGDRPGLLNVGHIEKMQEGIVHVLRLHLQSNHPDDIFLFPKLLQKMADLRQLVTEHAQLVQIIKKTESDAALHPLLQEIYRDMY

[7] = biological target: T7, VP16-PPARα / GAL4-SRC-1 (Homo sapiens, UniProt Q07869); test: mammalian two-hybrid assay, VP16-PPARα and coactivator GAL4-SRC-1; type: cell-based; details: 30 μM fatty acids, 1 μM GW7647, HEK293 cells, Fig. 3B
T7 construct: expressed in transfected cells; host or cells: HEK293
T7 sequence (Q07869 1-468): T6 sequence (Q07869 1-468)
T7 sequence (Q15788 595-771 partner limits assumed): T3 sequence (Q15788 595-771 partner limits assumed)

[8] = biological target: T8, recombinant human PPARδ LBD protein (Homo sapiens, UniProt Q03181); test: [14C] DHA competitive ligand-binding assay; details: 100 nM [14C] DHA, 1 μM nonlabeled fatty acids, overnight at 4 °C
T8 construct: Human PPARδ LBD (140–442) construct was cloned into a pGEX-4T1 vector; GST (N, cleaved yes); made in house; host or cells: Escherichia coli BL21 (DE3) pLys
T8 sequence (Q03181 140-441 limits assumed): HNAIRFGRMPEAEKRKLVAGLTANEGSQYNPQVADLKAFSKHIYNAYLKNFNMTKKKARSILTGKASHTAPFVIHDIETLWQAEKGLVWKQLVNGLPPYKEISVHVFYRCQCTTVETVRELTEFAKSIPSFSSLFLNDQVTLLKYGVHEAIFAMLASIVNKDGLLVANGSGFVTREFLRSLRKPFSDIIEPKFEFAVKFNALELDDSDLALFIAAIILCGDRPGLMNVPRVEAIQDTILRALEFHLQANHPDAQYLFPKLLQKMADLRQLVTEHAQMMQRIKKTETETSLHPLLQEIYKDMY
Protocol: To identify the mechanism underlying the activation of PPARδ by GLA-derived fatty acids, we performed a [^14C] DHA competitive ligand-binding assay describing the displacement of ligands from receptors with recombinant human PPARδ LBD protein produced by a bacterial expression system (Figs. 4, A and B and S2). PPARδ LBD or glutathione-S-transferase (GST) recombinant protein was incubated with both [^14C] […] A competitive inhibition of [^14C] DHA binding was analyzed as a direct binding to PPARδ LBD (see Experimental procedures). […] DHA binding to PPARδ LBD competitively (Fig. 4C).
Human PPARδ LBD (140–442) construct was cloned into a pGEX-4T1 vector (GE Healthcare Life Sciences) at the restriction enzyme site of SmaI and XhoI. The protein was expressed in Eschericia coli BL21 (DE3) pLys cells (Novagen) as a C-terminal fusion to a GST tag with a thrombin cleavage site. A single colony was cultured in 2 ml of LB media supplemented with 20 μg/ml of ampicillin and 30 μg/ml of chloramphenicol at 37 °C and 200 rpm for 18 h. The preculture was then transferred to 1 l of LB media until the A600 reached 0.6 to 0.8. IPTG was added to produce a final concentration of 0.4 mM, and expression was continued at 24 °C and 150 rpm for 18 h. Cells were collected using centrifugation, and pellets were resuspended in lysis buffer comprising 50 mM Tris–HCl (pH 7.5), 150 mM NaCl, 5 mM DTT, 1 mM EDTA, and 10% glycerol before sonication was performed. The supernatant was then collected using centrifugation at 100,000g and 4 °C for 70 min, after which it was loaded onto GST Accept (nacalai tesque) and equilibrated using the lysis buffer. Subsequently, the column was washed using five column volumes of the lysis buffer and thrombin cleavage buffer comprising 20 mM Tri–HCl (pH 8.4), 150 mM NaCl, 2.5 mM CaCl2, and 1 mM DTT, respectively. The GST tag was removed via digestion using biotinylated thrombin (Merck) for 18 h at 4 °C. The biotinylated thrombin was removed using Dynabeads M-280 streptavidin (Veritas). The purity of the target proteins was verified using SDS-PAGE.
A ligand-binding assay was performed as described previously with minor modifications ([72]). Briefly, purified recombinant human PPARδ LBD protein was incubated with 100 nM ([…]) [^14C] DHA in GP buffer (137 mM NaCl, 8.1 mM Na2HPO4, 2.68 mM KCl, 1.47 mM KH2PO4, 1% sodium azide, and 0.1% gelatin) overnight at 4 °C with or without various competitors (1 μM), including DHA and GLA-derived fatty acids. Unbound ligands were removed by adsorption to 3% dextran-coated charcoal, and the supernatant was collected. The PPARδ-bound [^14C] DHA was measured using a scintillation counter (PerkinElmer).

[9] = test system: human intestinal organoids; test: PPARδ target gene mRNA expression in human intestinal organoids (RT-qPCR); type: cell-based; details: 1 μM GW1516 or 30 μM fatty acids for 24 h

CC/C=C\CC(O)CCC(O)CCCCCCCCC(=O)O (centres unmarked) [αHYE]
ligand-induced activation of PPARα (in words) [1]: little or no effect

CCCCCC(O)CCC(O)CCCCCCCCC(=O)O (centres unmarked) [HYE]
PPARδ activation (in words) [2]: effective | ligand-induced activation of PPARα (in words) [1]: little or no effect

CC/C=C\C/C=C\C/C=C\C/C=C\C/C=C\C/C=C\CCC(=O)O [DHA, docosahexaenoic acid, reference compound]
EC50 ([2]; GAL4-PPARδ LBD, calculated from luciferase activity with Quest Graph EC50 Calculator): 44.6 µM | EC50 ([1]; GAL4-PPARα LBD, calculated from luciferase activity with Quest Graph EC50 Calculator): 9.32 µM

CCCCCC(=O)CC/C=C\CCCCCCCC(=O)O [KetoD]
PPARδ activation (in words) [2]: effective | ligand-induced activation of PPARα (in words) [1]: little or no effect

CCCCCC(O)CCC(O)CC/C=C\CCCCC(=O)O (stereo not drawn) [γHYE, 10,13-dihydroxy-cis-6-octadecenoic acid]
recruitment of coactivator SRC-1 to PPARδ [3]: induced coactivator-recruitment | transactivation of full-length PPARδ (in words) [4]: activated PPARδ potently | interaction between PPARδ and corepressor NCoR [5]: reduced the interaction | PPARδ activation (in words) [2]: more robust PPARδ activation than their original compound, GLA | interaction between PPARα and corepressor NCoR [6]: reduced the interaction | recruitment of coactivator SRC-1 to PPARα [7]: induced coactivator-recruitment | competitive displacement of [14C] DHA binding to PPARδ LBD [8]: displaced [^14C] DHA binding to PPARδ LBD competitively

CC/C=C\CC(=O)CC/C=C\CCCCCCCC(=O)O [αKetoD]
ligand-induced activation of PPARα (in words) [1]: little or no effect

CCCCCC(O)CC/C=C\CCCCCCCC(=O)O (centres unmarked) [HYD]
PPARδ activation (in words) [2]: effective | ligand-induced activation of PPARα (in words) [1]: little or no effect

Cc1cc(SCc2sc(-c3ccc(C(F)(F)F)cc3)nc2C)ccc1OCC(=O)O [GW1516, reference compound]
expression of PPARδ target genes (CPT1A, HMGCS2, PDK4, ACSL1) [9]: upregulated the mRNA expression of target genes

CC/C=C\CC(O)CC/C=C\CCCCCCCC(=O)O (centres unmarked) [αHYD]
PPARδ activation (in words) [2]: effective | ligand-induced activation of PPARα (in words) [1]: little or no effect
